# Measured values reported in PMC12040169 (PLOS Biology, 2025).
# Assay: in vitro
# Conditions: human, hela cells, % viability
row,SMILES,"viability at 28.5 h, 10 µM [%]"
1,O=[N+]([O-])c1cccc(-c2cc(N3CCC(N4CCCCC4)CC3)ncn2)c1 [CBK037710],107
2,CCOc1ccc(NC(=O)C(C)Sc2nc3ccc(F)cc3[nH]2)cc1 (stereo not drawn) [CBK266047],107
3,COC(=O)[C@@H]1CN(C(=O)Nc2ccccc2)CCN1C(C)=O [CBK289606],88
4,COCCN(CCOC)C(=O)Nc1ccc(F)c(NC(C)=O)c1 [CBK307705],98.2
5,CC(C)(C)OC(=O)N1CCCC(NCc2ccccn2)CC1 (stereo not drawn) [CBK305128],106
6,CCOC(=O)c1cnc2ccc(Br)cc2c1NCc1cccnc1 [CBK265030],83.5
7,O=C1CN(Cc2ccccc2)C(=O)N1CC1CCCCC1 [CBK162367],93.7
8,Nc1ncc(-c2ccncc2)nc1NCc1cccnc1 [CBK063879],103
9,Cn1cc(CN(Cc2ccccc2)CC2CCCO2)cn1 (stereo not drawn) [CBK283233],85.1
10,CC(C)CSc1nccnc1N1CCCC1 [CBK103683],97.7
11,Cc1ccc2[nH]c3c(c2c1)CCNCC3 [CBK004811],98.3
12,Cc1ccc2c(CC(=O)N(C)CCN3CCCCC3)coc2c1 [CBK282747],80.5
13,Cc1csc([C@H]2Cc3ccsc3[C@@H](C3CCOC3)N2)n1 (stereo partly drawn) [CBK285089],102
14,CC(C)(C)OC(=O)N1CCC(C(=O)NC[C@H](CC(=O)O)c2ccc(Cl)cc2)CC1 [CBK286691],98
15,O=C1CSC2c3ccccc3C(=O)N2c2ccccc21 (stereo not drawn) [CBK113670],108
16,Fc1ccc(Oc2nccnc2N2CCN(CCOc3cccnc3)CC2)cc1 [CBK083037T],98.7
17,Cc1csc2ncc(C(=O)Nc3ccc(Cl)c(Cl)c3)c(=O)n12 [CBK287459],104
18,O=C(CCSS(=O)(=O)O)N1CCc2ccccc21 [CBK260892N],94.4
19,O=C(Nc1cccc(CCc2nc3ccccc3[nH]2)c1)c1ccc(Cn2cncn2)cc1 [CBK285648],89.1
20,O=C(Nc1ccccc1C(=O)N1CCCC1)c1ccccc1CCc1ccccc1 [CBK268608],104
21,O=C(CCN1CCN(CCO)CC1)Nc1ccc(F)c(F)c1 [CBK264316],100
22,O=S(=O)(c1ccccc1)c1nc(-c2ccco2)oc1NCCCn1ccnc1 [CBK267670],87.1
23,NC(=O)C1CCN(C(=S)NC2CC3C=CC2C3)CC1 (stereo not drawn) [CBK085970],97.4

row,SMILES,"viability at 28.5 h, 10 µM [%]"
1,O=C(NCc1ccc2c(c1)OCO2)c1cnc(-c2ccc(Cl)cc2)c(-c2ccco2)c1 [CBK037547],98.3
2,Cc1ccc(S(N)(=O)=O)cc1NC(=O)c1ccc(Br)o1 [CBK003693],91.6
3,O=C(O)CCN1CCN(S(=O)(=O)c2cccc([N+](=O)[O-])c2)CC1 [CBK268819],89.7
4,CC(C)NC(=O)NC(=O)C1CCN(CCOc2ccc(Cl)cc2Cl)CC1 [CBK034949],106
5,CCCn1c(=S)[nH]c2cc(C(=O)NCCc3ccc(Cl)cc3)ccc2c1=O [CBK294445],88.6
6,N#CC(/N=C/c1ccc(C#Cc2ccccc2)cc1)=C(C#N)/N=C/c1ccc(C#Cc2ccccc2)cc1 [CBK262066],88
7,O=C(NOCc1ccccc1)c1nn(-c2ncccn2)c2ccccc12 [CBK048503],93.1
8,O=c1[nH]c2ncc(-c3ccco3)nc2n1Cc1ccc(F)c(Cl)c1 [CBK064393],108
9,O=C(CN1CCCCC1)N1CCCC1c1nc2ccccc2[nH]1 (stereo not drawn) [CBK283935],104
10,O=C(Cn1ccc2ccnc(-c3cccs3)c21)N1CCC(O)CC1 [CBK284736],93.1
11,O=C(Cn1cnnn1)N1CCN(Cc2ccccc2)CC1 [CBK026053],85.5
12,CCSc1nnc2c3c(sc2c1N)CC(C)(C)OC3 [CBK020374],95.4
13,CCn1c(=O)n(CCC(=O)NC(C(N)=O)c2ccccc2)c2ccccc21 (stereo not drawn) [CBK295196],89.7
14,O=C1OCCN1C1CCN(S(=O)(=O)c2cccs2)CC1 [CBK043313],99.3
15,CC(C)N1CCCC(CNC(=O)C2Cc3cc(Cl)ccc3O2)C1 (stereo not drawn) [CBK282686],92.8
16,O=C(c1sccc1Br)N1CCN(Cc2ccc3c(c2)OCO3)CC1 [CBK074730],100
17,COc1ccc(C)cc1N1CCCN(c2cc(C)ccc2OC)C1=O [CBK006937],84.8
18,O=C(O)C1(NS(=O)(=O)c2ccc(Cl)cc2)CCCCC1 [CBK028566],111
19,N#CCCN(C(=O)NCCCN1CCCC1=O)C1CCCCC1 [CBK156379],85.5
20,CN(CCc1ccncc1)C(=O)c1cc2ccc(F)cc2[nH]1 [CBK283215],81.3
21,COCC1(C(=O)N2CC(=O)N(c3ccccc3C#N)CC2C)CCC1 (stereo not drawn) [CBK307159],89
22,Cc1ccc(-c2nnc(CN3C(=O)C4(CC(=O)N(Cc5ccccc5)C4=O)c4ccccc43)o2)cc1 (stereo not drawn) [CBK075749],103
23,OC[C@H]1CCCN1c1nc(Br)cn2ccnc12 [CBK085496],101

row,SMILES,"viability at 28.5 h, 10 µM [%]"
1,COc1cc(Cl)cc(C2NC(=S)NC(c3ccccc3)=C2C(=O)c2ccccc2)c1OCC(=O)O (stereo not drawn) [CBK266332],106
2,CC(CCc1ccccc1)NC(=O)c1ccccc1C(=O)O (stereo not drawn) [CBK286940],94.5
3,COc1cc(CN2CCN(Cc3cccc([N+](=O)[O-])c3)CC2)cc(OC)c1 [CBK263156],95
4,N#Cc1cccc(-n2cc(-c3ccc(Br)cc3F)nn2)c1 [CBK113143],95.4
5,O=C(c1cccc2[nH]ccc12)N1CCN(CCc2ccccc2)CC1 [CBK200203],104
6,c1ccc(Nc2[nH]nnc2-c2ccccc2)cc1 [CBK261015],116
7,Cc1ccc(OCC(O)Cn2c(=N)n(Cc3ccccc3)c3ccccc32)cc1 (stereo not drawn) [CBK266293C],91.7
8,Cc1ccc(S(=O)(=O)Nc2ccc3c(ccn3CCC3CCN(C(=O)OC(C)(C)C)CC3)c2)cc1Cl [CBK172990],94.6
9,CS(=O)(=O)c1ccc(Cn2ccnc(OC3CCN(C(=O)c4cccc(C#N)c4)CC3)c2=O)cc1 [CBK161810],105
10,Fc1cccc(Cl)c1CN1CNC(=S)NC1 [CBK006480],88.7
11,O=C(O)CCN1C(=O)/C(=C/c2ccc(C(=O)O)cc2)SC1=S [CBK262785],93.2
12,N#Cc1c(C(F)(F)F)cc(-c2ccco2)nc1SCc1ccccn1 [CBK267450],88.5
13,Cc1cc(Cl)c(S(=O)(=O)N2CCCC2)cc1OCC(=O)NC1CCCCC1 [CBK266781],93.9
14,CN(c1ncc(-c2cc3ccccc3o2)cc1C(=O)NCC(F)(F)F)S(C)(=O)=O [CBK106479],114
15,O=C(CSc1nnc(-c2ccncc2)n1Cc1ccccc1)Nc1ccc(Cl)cc1 [CBK269346],97.3
16,CCc1nc2ccc(C(=O)Nc3ccc(Cl)c(Cl)c3)cn2c1N(CC)CCOC [CBK146042],94
17,CN1CCC[C@H]1c1nc(-c2ccnc(NS(C)(=O)=O)c2)no1 [CBK288884],86.8
18,O=C(CCn1cc(Br)ccc1=O)NC1CCN(Cc2ccccc2)CC1 [CBK305778],101
19,Cc1noc(C)c1C(=O)NC1(c2ccc(F)cc2)CCCC1 [CBK284013],93.4
20,Cc1ccccc1NC(=O)c1cnn2cccnc12 [CBK288217],90.3
21,Cc1ccccc1-c1noc(CSc2nnc(-c3ccncc3)n2-c2ccc(F)cc2)n1 [CBK269089],96.8
22,Cc1ccccc1Nc1nc(N)nc(CN(CCC#N)CC2CCC2)n1 [CBK305308],89.3
23,COCCNC(=O)c1cc(-c2ccc(C)s2)nc2c1cnn2C(C)C [CBK305051],105

row,SMILES,"viability at 28.5 h, 10 µM [%]"
1,CN(C)c1oc(-c2ccccc2)nc1S(=O)(=O)c1ccccc1 [CBK021477],105
2,CC(=O)N1CC(C(=O)Nc2ncc(-c3ccccc3)n2C)C1 [CBK281373],96.1
3,CC(C)(CNC(=O)Cn1cnc2ccccc21)N1CCCCC1 [CBK281879],95.8
4,O=C(Nc1ccc(I)cc1C(=O)N1CCCCC1CCO)c1cccc2ccccc12 (stereo not drawn) [CBK266212],113
5,CCN(CC)C(=O)CN1CCC(Oc2cncc(OCC3COc4ccccc4O3)n2)C1 (stereo not drawn) [CBK084374],102
6,CC(=O)Nc1ccc(CNc2ncccc2OC(F)F)cc1 [CBK306016],95
7,O=C(Cc1ccccc1F)NCc1nnc(-c2cccs2)o1 [CBK284632],82
8,Cc1ccc2[nH]c(-c3ccccc3NC(=O)CCCC(=O)O)nc2c1 [CBK295154],86
9,COc1c(O)ccc(/C=N\NC(=O)C2COc3cc4ccccc4cc3O2)c1[N+](=O)[O-] (stereo not drawn) [CBK262836],86.9
10,CCN(CC)CCN1CCN(c2cc(-c3ccc4c(c3)OCO4)ncn2)CC1 [CBK037694],86
11,COCOc1ccc(-c2nc(-c3cnc(OC)nc3OC)cnc2N)cc1 [CBK063991],91.9
12,N#Cc1nonc1NCn1nnc2ccccc21 [CBK062650],81.7
13,CC(C)C(C(=O)Nc1ccc(S(=O)(=O)Nc2nccs2)cc1)N1C(=O)c2ccccc2C1=O (stereo not drawn) [CBK265707],107
14,O=C(Cc1ccc(F)cc1)N1CCCC(c2nccnc2-c2cccc(C(F)(F)F)c2)C1 (stereo not drawn) [CBK286210],99.8
15,CC(=O)N(C)Cc1cccc(Nc2ncnc3c2cnn3C)c1 [CBK306319],95.3
16,Cc1ccc(CCNc2c([N+](=O)[O-])nn(-c3ccc4c(c3)OCCO4)[n+]2[O-])cc1 [CBK268225],103
17,CC(CNC1CCCC1)C(O)(c1ccccc1)c1ccccc1 (stereo not drawn) [CBK012237C],101
18,Cc1cccc(C(=O)N2CCCCC2C)c1 (stereo not drawn) [CBK074052],118
19,COc1cccc(Cn2c(=O)n(C)c3ncccc32)c1 [CBK282391],81.1
20,CCn1cncc1CN1CCC(O)(c2ccccc2F)CC1 [CBK282817],112
21,Cc1ccnc(NCC2CCN(c3ccc4nnnn4n3)C2)c1 (stereo not drawn) [CBK306348],57.3
